Assays:
[1] = system: HeLa; experiment: Cytotoxicity against human HeLa3 cell line in presence of ethanethiol by MTT assay; format: functional, cell-based
[2] = system: HeLa; experiment: Cytotoxicity against human HeLa3 cell line by MTT assay; format: functional, cell-based

For `O=C1CC(CCC#CCOC2CCCCO2)[S+]([O-])S1` (stereo not drawn), which IC50 [1] is on record?
Its IC50 is 8.33 µM.

And the IC50 [2]?
The IC50 was 62.9 µM.

`Cc1cn([C@H]2C[C@H](O)[C@@H](C3CC(=O)SS3)O2)c(=O)[nH]c1=O` (stereo partly drawn) was tested. Which IC50 [1] did it give?
Its IC50 is 54.6 µM.

And the IC50 [2]?
The IC50 was 299 µM.

For `COc1cccc2c1C(=O)c1c(O)c3c(c(O)c1C2=O)C[C@@](O)(C(C)=O)C[C@@H]3OC1C[C@H](N)[C@H](O)[C@H](C)O1` (single isomer, unassigned) [DAUNORUBICIN], which IC50 [2] is on record?
The IC50 was 2.96 µM.

Which results are given for `CC(C)(C)[Si](C)(C)O[C@@H]1[C@H](O[Si](C)(C)C(C)(C)C)[C@@H](C2CC(=O)S[S+]2[O-])O[C@H]1n1ccc(=O)[nH]c1=O` (stereo partly drawn)?
IC50 [1]: 2.67 µM; IC50 [2]: 3.68 µM

How did the IC50 [1] turn out when `Cc1cn([C@H]2C[C@H](O[Si](C)(C)C(C)(C)C)[C@@H](C3CC(=O)SS3)O2)c(=O)[nH]c1=O` (stereo partly drawn) was run?
The IC50 was 16.7 µM.

Which results are given for `Cc1cn([C@H]2C[C@H](O)[C@@H](C3CC(=O)S[S+]3[O-])O2)c(=O)[nH]c1=O` (stereo partly drawn)?
IC50 [1]: 29.7 µM; IC50 [2]: 119 µM

For `O=C1CC(CCc2ccccc2)SS1` (stereo not drawn), which IC50 [1] is on record?
The IC50 was 65.5 µM.

What about the IC50 [2] of the same compound?
The IC50 was 258 µM.

Which IC50 [1] does the source give for `CC(C)(C)[Si](C)(C)O[C@@H]1[C@H](O[Si](C)(C)C(C)(C)C)[C@@H](C2CC(=O)SS2)O[C@H]1n1ccc(=O)[nH]c1=O` (stereo partly drawn) here?
The IC50 was 7.84 µM.

What about the IC50 [2] of the same compound?
The IC50 was 10 µM.

For `O=C1CC([C@H]2O[C@@H](n3ccc(=O)[nH]c3=O)[C@H](O)[C@@H]2O)[S+]([O-])S1` (stereo partly drawn), which IC50 [1] is on record?
Its IC50 is 7.01 µM.

What about the IC50 [2] of the same compound?
Its IC50 is 50.7 µM.

Which IC50 [1] does the source give for `CC1(C)O[C@H]([C@H]2COC(C)(C)O2)[C@@H](C2CC(=O)SS2)O1` (stereo partly drawn) here?
The IC50 was 16.9 µM.

And the IC50 [2]?
The IC50 was 35.9 µM.

Which IC50 [1] does the source give for `Cc1cn([C@H]2C[C@H](O[Si](C)(C)C(C)(C)C)[C@@H](C3CC(=O)S[S+]3[O-])O2)c(=O)[nH]c1=O` (stereo partly drawn) here?
Its IC50 is 6.61 µM.

What about the IC50 [2] of the same compound?
The IC50 was 43.1 µM.

What does the source list for `O=C1CC([C@H]2O[C@@H](n3ccc(=O)[nH]c3=O)[C@H](O)[C@@H]2O)SS1` (stereo partly drawn)?
IC50 [1]: 20.7 µM; IC50 [2]: 62.2 µM

With `CC1(C)O[C@H]([C@H]2COC(C)(C)O2)[C@@H](C2CC(=O)S[S+]2[O-])O1` (stereo partly drawn) as the compound, how does the IC50 [1] read?
Its IC50 is 12.6 µM.

What about the IC50 [2] of the same compound?
Its IC50 is 18.2 µM.

`O=C1CC(CCC#CCOC2CCCCO2)SS1` (stereo not drawn) was tested. Which IC50 [1] did it give?
Its IC50 is 20.1 µM.

What about the IC50 [2] of the same compound?
Its IC50 is 124 µM.

Which IC50 [1] does the source give for `O=C1CC(CCc2ccccc2)[S+]([O-])S1` (stereo not drawn) here?
Its IC50 is 24.8 µM.

What about the IC50 [2] of the same compound?
The IC50 was 68.4 µM.

— ChEMBL document CHEMBL1146888, “Synthesis and cytotoxicity of leinamycin antibiotic analogues” (J Med Chem, 2006)
